Assay results: patent US20160345855A1, “METHODS OF TREATING BRAIN DISORDERS OR IDENTIFYING BIOMARKERS RELATED THERETO” (NORTHWESTERN UNIVERSITY, priority 2013, published 2016)
Entries after “also recorded” stand apart in the source; their conditions may differ. Peptide text beside a SMILES is read from it.

What was measured:
NMDAR [1] = details: cited from earlier work; for side effects: human clinical studies; for Hamilton Depression Rating Score: patients suffering with refractory depression
healthy young adults [2] = experiment: fMRI (BOLD) during item category association task, Example 2 (randomized, single-blind, parallel group); format: in vivo, humans; details: single IV 5 mg/kg
From the text: We investigated whether a single IV administration of GLYX-13 compared to placebo changed functional activation among healthy young adults performing a learning and memory task while undergoing fMRI.
The inclusion criteria for adult subjects participating in the study were as follows (i) 18-40 years of age; (ii) estimated IQ within what is considered to be the normal range (80-120); and (iii) no personal medical, neurologic, or psychiatric history, or reported history of psychiatric illness among first degree relatives.
After initial (Visit 1), patients were randomized to either single IV administration of GLYX-13 (5 mg/kg) or placebo on subsequent visit (Visit 2). fMRI studies started within 20 minutes post-infusion. Subjects returned approximately one week after Visit 2 to complete behavioral tasks in scanner and assess any adverse effects.
Item Category Association Task (See, e.g., Onur O A, Schlaepfer T E, Kukolja J, Bauer A, Jeung H, Patin A, Otte D-M, Shah N J, Maier W, Kendrick K M, Fink G R, Hurleman R (2010).
The N-methyl-D-aspartate receptor co-agonist D-Cycloserine facilitates declarative learning and hippocampal activity in humans. Biol. Psychiatry, 67, 1205). Subjects were asked to learn arbitrary group membership (A or B) of 3-digit numbers. Visual feedback was provided immediately following choice (button press) to indicate correct item category association. There were eight category memberships to be learned, which were presented over eight cycles (i.e., 7 repetitions) for a total of 64 trials per run; three sets of learning runs (each with different 3-digit number sets. See FIG. 3.
3T TIM Trio system (Siemens Medical Systems) with 32 channel coil. […]

healthy young adults [3] = experiment: fMRI (BOLD) during item category association task, Example 1; format: in vivo, humans; details: IV-injection of 5 mg
Procedure: GLYX-13 was used to investigate whether this compound changed functional activation in hippocampal and related learning regions healthy young adults.
Twenty-four healthy individuals underwent functional magnetic resonance imaging (fMRI) after randomization to IV-injection of 5 mg of GLYX-13 (n=12) or placebo (n=12). Groups were matched on demographic factors, estimated IQ, and dose volume. While undergoing scanning, subjects performed an item category association task in which they learned over repeated cycles which of two categories a series of numbers were assigned. Change in blood-oxygen level dependent (BOLD) activity was measured during correctly performed trials, and differences in activation between groups were compared across learning cycles.

NMDAR [4] = details: in vivo; cited from earlier work

| Compound | side effects (NMDAR [1]) | Hamilton Depression Rating Score (NMDAR [1]) | number of identified regions with significant group by cycle interaction effects on extracted mean % signal change (healthy young adults [2]; FIGS. 7A-7F) | behavioral task performance (learning effect across cycle) (healthy young adults [2]; compared with Placebo, FIG. 5) | BOLD activation / extracted mean % signal change vs. Placebo (healthy young adults [2]; correct trials, FIGS. 7A-7F, 5 mg/kg) | regions in which Placebo demonstrated greater activation compared to GLYX-13 (healthy young adults [3]) | BOLD activation over learning cycles compared to Placebo (healthy young adults [3]; n=12 per group, correctly performed trials, hippocampus, parahippocampal gyrus, amygdala, superior temporal, middle frontal, inferior frontal gyri) | task accuracy over successive cycles (healthy young adults [3]; both groups (GLYX-13 and placebo)) | antidepressant activity (NMDAR [4]) | nootropic, neuroprotective, antinociceptive and cognitive activity (NMDAR [4]) | psychotomimetic side effects (NMDAR [4]) |
| --- | --- | --- | --- | --- | --- | --- | --- | --- | --- | --- | --- |
| C[C@@H]([C@@H](O)c1ccc(O)cc1)N1CCC(O)(c2ccccc2)CC1 [CPC-101.606] | severe | significant reductions |  |  |  |  |  |  |  |  |  |
| C[C@@H](O)[C@H](N)C(=O)N1CCC[C@H]1C(=O)N1CCC[C@H]1C(=O)N[C@H](C(N)=O)[C@@H](C)O [GLYX-13, L-threonyl-L-prolyl-L-prolyl-L-threonine amide] (H-TPPT-NH2) |  |  | six | robust and comparable learning effect across cycle | enhanced activation; also recorded: enhanced BOLD signal change | no regions | enhanced activation over learning cycles in several learning and memory regions | increased task accuracy over successive cycles | rapid-acting, robust, and sustained antidepressant activity | exhibits nootropic, neuroprotective and antinociceptive activity, and enhances learning, memory and cognition in vivo | lack the pyschotomimetic side effects |
| CNC1(c2ccccc2Cl)CCCCC1=O (stereo not shown) [ketamine] | severe | significant reductions |  |  |  |  |  |  |  |  |  |
